Bounds are passed on as bounds.

The test system of data set [1] is G-361. In words: Cytotoxicity assay, resazurin, 72 h, G-361. Type of data set: cell-based. To be noted: Homo sapiens, malignant melanoma. Here is the method:
(§1) The cytotoxicity screening tests were made with T-lymphoblastic leukemia (CCRF-CEM), breast adenocarcinoma (MCF7), cervical carcinoma (HeLa), and malignant melanoma (G-361) cancer cell lines (the European Collection of Authenticated Cell Cultures, Salisbury, U.K.). Human foreskin fibroblasts (BJ) were used as reference cells, and they were obtained from the American Type Culture Collection (ATCC, Manassas, Virginia). The cells were cultured in DMEM (Dulbecco’s modified Eagle’s medium) or RPMI 1640 (CCRF-CEM). Media used were supplemented with 10% fetal serum, L-glutamine (2 mM), and 1% penicillin–streptomycin mixture (all from Sigma-Aldrich). The cell lines were maintained under standard cell culture conditions at 37 °C and 5% CO2 in a humid environment. Cells were subcultured two or three times a week using the standard trypsinization procedure.
(§2) The cytotoxicity assays were performed according to the standard experimental procedure published earlier. The cell viability was measured after 72 h using resazurin (Sigma-Aldrich). Western blotting and caspase activity assay were performed as described earlier. ,

Data set [2] concerns MCF7. In words: Cytotoxicity assay, resazurin, 72 h, MCF7. Type of data set: cell-based. To be noted: Homo sapiens, breast adenocarcinoma. Here is the method:
as §1, §2

For data set [3], the system named is CCRF-CEM. In words: Cytotoxicity assay, resazurin, 72 h, CCRF-CEM. It counts as cell-based. To be noted: Homo sapiens, T-lymphoblastic leukemia. The procedure: as §1, §2
A general note: The colour change of resazurin is a common sign of viable cells or microbes.

Data set [4] is described as follows: Cytotoxicity assay, resazurin, 72 h, normal fibroblasts BJ. It counts as cell-based. To be noted: human, BJ normal foreskin fibroblasts, normal foreskin fibroblast. Here is the method:
as §1, §2

The test system of data set [5] is HeLa. In words: Cytotoxicity assay, resazurin, 72 h, HeLa. It counts as cell-based. To be noted: Homo sapiens, cervical cancer. The procedure: as §1, §2
Data set [6] can be described thus: Nanoassembly by UV spectroscopy and TEM in methanol and water. Type of data set: physicochemical. The note with it: UV spectra and TEM. The procedure:
UV spectra were measured on a Specord 210 spectrometer (Jena Analytical, Germany) in the wavelength range of 200–400 nm. The stock solutions of the studied compounds (9b, 13b, 16b, or 17b; 0.003 mmol) were prepared in methanol (2 mL) at a concentration of 1 mg·mL^–1. A series of water/methanol mixtures were then prepared starting from a water/methanol ratio of 0/100 up to 100/0 in 20% steps. The stock solutions of the studied compounds (0.15 mL) were added separately to each vial containing water/methanol mixtures (3 mL), and the UV spectra were recorded in the wavelength range of 200–400 nm. Aliquots of the stock solutions of the studied compounds (160 μL) were used to prepare samples in the given ratios of water/methanol (0:100 to 100:0 in the 20% steps) mixtures. The UV spectra were recorded in the time 0, 1, 2, 3, and 4 h, followed by a subsequent recording after each 24 h during 7 days (Supporting Information, Figure S33). Note: All target compounds were subjected to this type of investigation; however, self-assembly characteristics were detected by measuring the UV spectra only with 9b, 13b, 16b, and 17b.
Transmission electron microscopy (TEM) was performed with a Tecai G2 Spirit Twin 12 microscope (FEI, Brno, Czech Republic). The samples for TEM were prepared by the fast-drying method, both in methanol and in water. , The studied compounds (2 μL of each one) were dissolved in methanol, and if studies should have been made in water, the compounds were first dissolved in methanol, and then water was added to make the final methanol/water (1:10) solutions. The solutions of compounds in either solvent were made to get the final concentrations of c = 10 mg·mL^–1. Then the solutions were dropped onto a standard carbon-coated copper TEM grid (300 mesh). After 2 min, the rest of the solution was removed by touching the bottom of the grid with a thin strip of filter paper. This fast removal of the solvent, also referred to as “fast-drying” above, is necessary to minimize drying artifacts, as documented in previous studies. , The fast-dried specimens were left to dry completely at an ambient temperature. […] The morphology of selected samples was verified by additional TEM experiments, which employed the samples that were negatively stained with uranyl acetate (UO2Ac2). The negative staining was performed as follows: A small volume (2 μL) of UO2Ac2 (2 wt % of aqueous solution) was dropped on the selected dried specimens from the previous step (i.e., on the dried specimens on the carbon-coated TEM grids). After 1 min, the excess of UO2Ac2 solution was removed (by touching the bottom of the grid with filter paper, like in the previous step). […]

Data set [7] is described as follows: Solubility in methanol and water. Type of data set: physicochemical.

Turning to `CC1(C)CC[C@]2(C(=O)O)CC[C@]3(C)C(=CC[C@@H]4[C@@]5(C)CC[C@H](O)C(C)(C)[C@@H]5CC[C@]43C)[C@@H]2C1` [Compound 1a, (3β)-3-hydroxyolean-12-en-28-oic-acid, reference compound], the half-maximal inhibitory concentration (IC50) in data set [1], in data set [2], in data set [3] and in data set [5] was more than 50 µM each time. The compound also yielded a concentration for half-maximal inhibition (IC50) at 72 h in data set [4] of more than 50 µM.

`C[C@H]1[C@H](C)CC[C@]2(C(=O)O)CC[C@]3(C)C(=CC[C@@H]4[C@@]5(C)CC[C@H](O)C(C)(C)[C@@H]5CC[C@]43C)[C@H]12` [Compound 1b, (3β)-3-hydroxy-urs-12-en-28-oic-acid, reference compound]: the IC50 in data set [1] was 9.7 ± 0.3 µM; in data set [2], 16.2 ± 0.5 µM; in data set [3], 13.2 ± 2.7 µM; in data set [5] it was 12.6 ± 2.7 µM. For the same compound, half-maximal inhibition in data set [4] (IC50 at 72 h) was put at 15.6 ± 0.6 µM.

`CC(=O)O[C@H]1CC[C@]2(C)[C@H]3CC=C4[C@@H]5CC(C)(C)CC[C@]5(C(=O)NCC(=O)O)CC[C@@]4(C)[C@]3(C)CC[C@H]2C1(C)C` [Compound 3a]: the concentration for half-maximal inhibition (IC50) was 43.1 ± 1.1 µM in data set [1], 46.9 ± 4.4 µM in data set [2], 41 ± 5.9 µM in data set [3] and 35.8 ± 3.4 µM in data set [5]. Further, in data set [4], the IC50 at 72 h is more than 50 µM.

As to `CC(=O)O[C@H]1CC[C@]2(C)[C@H]3CC=C4[C@@H]5[C@@H](C)[C@H](C)CC[C@]5(C(=O)NCC(=O)O)CC[C@@]4(C)[C@]3(C)CC[C@H]2C1(C)C` [Compound 3b], the IC50 in data set [1] was 38.7 ± 4.9 µM; in data set [2] it was 49.7 ± 0.5 µM; in data set [3], 43.3 ± 5.4 µM. This compound registered an IC50 at 72 h in data set [4] of more than 50 µM.

As for `CC(=O)O[C@H]1CC[C@]2(C)[C@H]3CC=C4[C@@H]5CC(C)(C)CC[C@]5(C(=O)NCC(=O)Nc5cc6cccnc6c6ncccc56)CC[C@@]4(C)[C@]3(C)CC[C@H]2C1(C)C` [Compound 4a], the IC50 in data set [1] turned out to be 0.4 µM; in data set [2] it was 0.7 ± 0.1 µM; in data set [3] it was 0.6 ± 0.1 µM; in data set [5], 0.3 µM. The compound further yielded an IC50 at 72 h in data set [4] of 0.8 ± 0.1 µM.

`CC(=O)O[C@H]1CC[C@]2(C)[C@H]3CC=C4[C@@H]5[C@@H](C)[C@H](C)CC[C@]5(C(=O)NCC(=O)Nc5cc6cccnc6c6ncccc56)CC[C@@]4(C)[C@]3(C)CC[C@H]2C1(C)C` [Compound 4b]: the concentration for half-maximal inhibition (IC50) in data set [1] was 0.5 ± 0.1 µM; in data set [2] it was 0.9 ± 0.3 µM; in data set [3] it was 0.6 ± 0.2 µM; in data set [5], 0.4 ± 0.1 µM. The IC50 at 72 h in data set [4] was 1.5 ± 0.5 µM.

Take `CC1(C)CC[C@]2(C(=O)NCC(=O)Nc3cc4cccnc4c4ncccc34)CC[C@]3(C)C(=CC[C@@H]4[C@@]5(C)CC[C@H](O)C(C)(C)[C@@H]5CC[C@]43C)[C@@H]2C1` [Compound 5a]: the IC50 turned out to be 0.5 ± 0.1 µM in data set [1], 0.4 ± 0.1 µM in data set [2], 0.3 ± 0.1 µM in data set [3] and 0.6 ± 0.2 µM in data set [5]. The compound also yielded an IC50 at 72 h in data set [4] of 1.5 ± 0.1 µM.

On to `C[C@H]1[C@H](C)CC[C@]2(C(=O)NCC(=O)Nc3cc4cccnc4c4ncccc34)CC[C@]3(C)C(=CC[C@@H]4[C@@]5(C)CC[C@H](O)C(C)(C)[C@@H]5CC[C@]43C)[C@H]12` [Compound 5b], for which the IC50 in data set [1] stood at 0.5 ± 0.1 µM; in data set [2] it was 0.5 µM; in data set [3] it was 0.6 ± 0.1 µM; in data set [5], 0.6 ± 0.1 µM. For the same compound, the IC50 at 72 h in data set [4] amounted to 1.6 ± 0.1 µM.

For the compound `CC(=O)O[C@H]1CC[C@]2(C)[C@H]3CC=C4[C@@H]5CC(C)(C)CC[C@]5(C(=O)NCC(=O)Nc5ccc(N)cc5)CC[C@@]4(C)[C@]3(C)CC[C@H]2C1(C)C` [Compound 7a], the IC50 in data set [1] was 8.5 ± 0.1 µM; in data set [2] it was 12 ± 2.5 µM; in data set [3], 17.1 ± 1.9 µM; in data set [5], 10.9 ± 1.9 µM. Further, the IC50 at 72 h in data set [4] amounted to 18.5 ± 2.6 µM.

`CC(=O)O[C@H]1CC[C@]2(C)[C@H]3CC=C4[C@@H]5[C@@H](C)[C@H](C)CC[C@]5(C(=O)NCC(=O)Nc5ccc(N)cc5)CC[C@@]4(C)[C@]3(C)CC[C@H]2C1(C)C` [Compound 7b]: the IC50 in data set [1] is 11.2 ± 0.4 µM; in data set [2], 14.9 ± 2.2 µM; in data set [3], 18.1 ± 0.4 µM; in data set [5] it was 12.5 ± 2.3 µM. The compound further had an IC50 at 72 h in data set [4] of 36.1 ± 4.5 µM.

Turning to `CC1(C)CC[C@]2(C(=O)NCC(=O)Nc3ccc(N)cc3)CC[C@]3(C)C(=CC[C@@H]4[C@@]5(C)CC[C@H](O)C(C)(C)[C@@H]5CC[C@]43C)[C@@H]2C1` [Compound 9a], the IC50 worked out at 18.6 ± 2.3 µM in data set [1], 17 ± 2.1 µM in data set [2], 31.7 ± 2.3 µM in data set [3] and 28.7 ± 1.8 µM in data set [5]. Besides, the nanoassembly entry in data set [6] is “showed no nanoassembly”. Also, the IC50 at 72 h in data set [4] came out at 37.9 ± 6.1 µM.

For the compound `C[C@H]1[C@H](C)CC[C@]2(C(=O)NCC(=O)Nc3ccc(N)cc3)CC[C@]3(C)C(=CC[C@@H]4[C@@]5(C)CC[C@H](O)C(C)(C)[C@@H]5CC[C@]43C)[C@H]12` [Compound 9b], the IC50 in data set [1] came to 23.3 ± 1 µM; in data set [2] it was 16.4 ± 3.7 µM; in data set [3] it was 25.8 ± 0.4 µM; in data set [5] it was 30 ± 2.8 µM. The nanoassembly result in data set [6] was “displayed nanoassembly in methanol and water”. Moreover, the solubility result in data set [7] is “soluble both in methanol and in water”. This compound had an IC50 at 72 h in data set [4] of 35.2 ± 1.3 µM.

Regarding `CC(=O)O[C@H]1CC[C@]2(C)[C@H]3CC=C4[C@@H]5CC(C)(C)CC[C@]5(C(=O)NCC(=O)Nc5cccc(N)c5)CC[C@@]4(C)[C@]3(C)CC[C@H]2C1(C)C` [Compound 11a], the IC50 was 38.6 ± 1.3 µM in data set [1], 39.5 ± 1.5 µM in data set [2], more than 50 µM in data set [3] and 41.9 ± 4.7 µM in data set [5]. In addition, in data set [4], the IC50 at 72 h was more than 50 µM.

For the compound `CC(=O)O[C@H]1CC[C@]2(C)[C@H]3CC=C4[C@@H]5[C@@H](C)[C@H](C)CC[C@]5(C(=O)NCC(=O)Nc5cccc(N)c5)CC[C@@]4(C)[C@]3(C)CC[C@H]2C1(C)C` [Compound 11b], the IC50 in data set [1] amounted to 15 ± 0.8 µM; in data set [2], 15.8 ± 3.2 µM; in data set [3] it was 32.6 ± 8.7 µM; in data set [5], 14.6 ± 2.7 µM. Further, 44.8 ± 0.6 µM corresponded to half-maximal inhibition in data set [4] (IC50 at 72 h).

As for `CC1(C)CC[C@]2(C(=O)NCC(=O)Nc3cccc(N)c3)CC[C@]3(C)C(=CC[C@@H]4[C@@]5(C)CC[C@H](O)C(C)(C)[C@@H]5CC[C@]43C)[C@@H]2C1` [Compound 13a], the IC50 in data set [1] came out at 19.5 ± 2.1 µM; in data set [2], 14.2 ± 1.3 µM; in data set [3] it was 29.4 ± 4.4 µM; in data set [5], 19.9 ± 1 µM. Further, in data set [6], the nanoassembly result is recorded as “showed no nanoassembly”. The same compound showed an IC50 at 72 h in data set [4] of 45.7 ± 2.2 µM.

As to `C[C@H]1[C@H](C)CC[C@]2(C(=O)NCC(=O)Nc3cccc(N)c3)CC[C@]3(C)C(=CC[C@@H]4[C@@]5(C)CC[C@H](O)C(C)(C)[C@@H]5CC[C@]43C)[C@H]12` [Compound 13b], the IC50 worked out at 14.4 ± 2.9 µM in data set [1], 12.8 ± 2.5 µM in data set [2], 22.3 ± 2.3 µM in data set [3] and 26.7 ± 2.7 µM in data set [5]. Further, the nanoassembly entry in data set [6] was “displayed nanoassembly in methanol and water”. Further, the solubility result in data set [7] was “soluble both in methanol and in water”. In addition, the IC50 at 72 h in data set [4] was 38.5 ± 0.8 µM.

One may read the IC50 as the concentration that gives 50% inhibition.
